Measured values as given in ChEMBL document CHEMBL1201862, “PubChem BioAssay data set” (2004).
Several values for one entry are separate records, joined by “and”; a condition that tells them apart may be missing. Equal values may be shown once.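 A five-concentration, 48-hour dose response in 96-well plates underlies each endpoint, interpolated linearly between surrounding concentrations. The concentration for 50% growth inhibition is given as GI50.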 Activity calls are given as the source filed them. Rule as the data show it: active = GI50 up to about 1.1 µM and inactive = higher.

Assays:
Test in all cases: DTP human tumour cell line panel, 48 h
[1] = system: UO-31
[2] = system: 786-0
[3] = system: HCC 2998
[4] = system: NCI-H226
[5] = system: UACC-62
[6] = system: LOX IMVI
[7] = system: HL-60
[8] = system: MCF7
[9] = system: HT-29
[10] = system: Malme-3M
[11] = system: SF-539
[12] = system: DU-145
[13] = system: SK-MEL-2
[14] = system: OVCAR-3
[15] = system: SK-MEL-28
[16] = system: MDA-N
[17] = system: M19-MEL
[18] = system: DLD-1

O=C(/C=C/c1cccs1)c1cccc(C(=O)/C=C/c2cccs2)n1
GI50 [1]: 21.3 µM (inactive) | GI50 [2]: 6.81 µM (inactive) | GI50 [3]: > 100 µM (inactive) | GI50 [4]: > 100 µM (inactive) | GI50 [5]: > 31.2 µM (inactive) | GI50 [6]: 2.05 µM (inactive) | GI50 [7]: 7.41 µM (inactive) | GI50 [8]: 1.25 µM (inactive) | GI50 [9]: 6.21 µM (inactive) | GI50 [10]: > 100 µM (inactive) | GI50 [11]: 6 µM (inactive) | GI50 [12]: > 81.3 µM (inactive) | GI50 [13]: > 100 µM (inactive) | GI50 [14]: 42.2 µM (inactive) | GI50 [15]: 53.2 µM (inactive) | GI50 [16]: 28.2 µM (inactive)

C=C(Cl)C(Cl)(CBr)CCC(Br)C(C)(C)Cl (stereo not given)
GI50 [1]: 1.85 µM (inactive) and 6.27 µM (inactive) and 1.99 µM (inactive) | GI50 [2]: 640 nM (active) and 175 nM (active) and 247 nM (active) | GI50 [3]: 3.15 µM (inactive) and 2.61 µM (inactive) and 1.59 µM (inactive) | GI50 [4]: 18.2 µM (inactive) and 17.5 µM (inactive) and 16 µM (inactive) | GI50 [5]: 3.72 µM (inactive) and 1.07 µM (active) and 3.47 µM (inactive) | GI50 [6]: 19.1 µM (inactive) and 5.7 µM (inactive) and 15.6 µM (inactive) | GI50 [7]: 635 nM (active) and 733 nM (active) and 2.42 µM (inactive) | GI50 [8]: 1.26 µM (inactive) and 2.54 µM (inactive) and 220 nM (active) | GI50 [9]: 497 nM (active) and 828 nM (active) and 735 nM (active) | GI50 [10]: 13.6 µM (inactive) and 15.3 µM (inactive) and 7.36 µM (inactive) | GI50 [11]: 1.95 µM (inactive) and 446 nM (active) and 1.27 µM (inactive) | GI50 [12]: 2.76 µM (inactive) and 1.38 µM (inactive) | GI50 [13]: 1.31 µM (inactive) | GI50 [14]: 798 nM (active) and 2.23 µM (inactive) and 1.51 µM (inactive) | GI50 [15]: 1.73 µM (inactive) and 11.5 µM (inactive) and 2.28 µM (inactive) | GI50 [16]: 2.28 µM (inactive) and 964 nM (active) and 8.77 µM (inactive)

COC(=O)C1=C(C(=O)OC)N(c2ccncc2)C(c2ccco2)=CC1c1ccccc1[N+](=O)[O-] (stereo not given)
GI50 [1]: 3.57 µM (inactive) | GI50 [2]: 1.7 µM (inactive) | GI50 [3]: 2.03 µM (inactive) | GI50 [4]: 4.99 µM (inactive) | GI50 [5]: 9.91 µM (inactive) | GI50 [6]: 1.72 µM (inactive) | GI50 [7]: 2.46 µM (inactive) | GI50 [8]: 1.87 µM (inactive) | GI50 [9]: 1.99 µM (inactive) | GI50 [10]: 4.55 µM (inactive) | GI50 [11]: 1.75 µM (inactive) | GI50 [12]: 5.24 µM (inactive) | GI50 [13]: 18.2 µM (inactive) | GI50 [14]: 5.27 µM (inactive) | GI50 [15]: 6.32 µM (inactive) | GI50 [16]: 2.71 µM (inactive)

CCCCCC[C@H]([C@H](C)O)n1cnc2c(N)ncnc21
GI50 [1]: 91.8 µM (inactive) | GI50 [2]: > 100 µM (inactive) | GI50 [3]: > 100 µM (inactive) | GI50 [4]: > 100 µM (inactive) | GI50 [5]: > 100 µM (inactive) | GI50 [6]: > 100 µM (inactive) | GI50 [7]: 50.9 µM (inactive) | GI50 [8]: > 100 µM (inactive) | GI50 [9]: > 100 µM (inactive) | GI50 [10]: > 100 µM (inactive) | GI50 [11]: 57.4 µM (inactive) | GI50 [12]: > 100 µM (inactive) | GI50 [13]: > 100 µM (inactive) | GI50 [14]: > 100 µM (inactive) | GI50 [15]: 49.3 µM (inactive) | GI50 [16]: > 100 µM (inactive)

COC(=O)c1ccc(C)cc1C1CN=NC12Cc1cccc(C)c1C2=O (stereo not given)
GI50 [1]: 26.7 µM (inactive) | GI50 [2]: > 100 µM (inactive) | GI50 [3]: 42.2 µM (inactive) | GI50 [4]: 25.1 µM (inactive) | GI50 [5]: 21 µM (inactive) | GI50 [6]: 28.6 µM (inactive) | GI50 [7]: 20.2 µM (inactive) | GI50 [8]: 91.2 µM (inactive) | GI50 [9]: 71.6 µM (inactive) | GI50 [10]: 27.8 µM (inactive) | GI50 [11]: 90.4 µM (inactive) | GI50 [12]: 65.2 µM (inactive) | GI50 [13]: 23.8 µM (inactive) | GI50 [14]: 32.8 µM (inactive) | GI50 [15]: 30.7 µM (inactive) | GI50 [16]: 26.2 µM (inactive)

COC(=O)C(=Cc1cc(OC)ccc1OC)C(=O)OC
GI50 [1]: 23 µM (inactive) | GI50 [2]: 23.4 µM (inactive) | GI50 [3]: 19.1 µM (inactive) | GI50 [4]: 53.6 µM (inactive) | GI50 [5]: 20.9 µM (inactive) | GI50 [6]: 18.2 µM (inactive) | GI50 [7]: 21.8 µM (inactive) | GI50 [17]: 22 µM (inactive) | GI50 [9]: 21.8 µM (inactive) | GI50 [10]: 26.9 µM (inactive) | GI50 [11]: 24.7 µM (inactive) | GI50 [18]: 29 µM (inactive) | GI50 [13]: 22.1 µM (inactive) | GI50 [14]: 21.2 µM (inactive) | GI50 [15]: 23.6 µM (inactive)
